From patent publication US20190269656A1, “Combination Therapies Using Indazolylbenzamide Derivatives for the Treatment of Cancer” (ESANEX, INC., priority 2016, published 2019)

Experiments:
[1] = system: unresectable gastro-entero-pancreatic or pulmonary NETs; assay: Tumor response by RECIST 1.1 in NET patients treated with SNX-5422 plus everolimus; type: in vivo, human
Protocol: (§1) Starting on Day 1, SNX-5422 was dosed once every other day for 21 days (11 doses), followed by a 7-day drug free period. SNX-5422 was dosed each morning starting at 50 mg/m^2 with standard 3+3 dose escalation. The actual dose administered was based on body surface area, calculated using body weight measured at the start of each cycle and height at Screening. The calculated dose was then rounded to the nearest mg on dosing chart. Everolimus was dosed at 10 mg once daily in the evening (at least 8 hours after SNX-5422 dosing) for 28 days, with dose de-escalation allowed based on EVR toxicity. Eligible patients were to have unresectable gastro-entero-pancreatic or pulmonary NETs and less than 5 prior lines of anti-cancer treatment.
Tumor response was assessed at the end of every 2 cycles±2 weeks, using RECIST 1.1 criteria (Eisenhauer et al. European Journal of Cancer 45:228-247 (2009)). Partial Response (PR) was defined as at least a 30% decrease in the sum of diameters of target lesions, taking as reference the baseline sum diameters. Progressive Disease (PD) was defined as at least a 20% increase in the sum of diameters of target lesions, taking as reference the smallest sum on study. Stable disease is noted where there is no sufficient shrinkage to qualify for PR or no sufficient increase to qualify for PD.

[2] = Tolerability: treatment-emergent adverse events and MTD, SNX-5422 dose escalation plus everolimus in NET patients; type: in vivo; details: in combination with everolimus, once every other day for 21 days of 28-day cycle
Protocol: as §1
Results: Seventeen patients (10 male, 7 female; median age 59 years) with NETs were enrolled in the study. The maximum tolerated dose (MTD) of SNX-5422 was determined to be 75 mg/m^2 in combination with everolimus.
Tolerability: Most frequent (i.e., occurring in 6 or more patients overall) Treatment-Emergent Adverse Events (TEAEs) are provided in Table 1. All patients reported at least one TEAE. Diarrhea was the most commonly reported TEAE, occurring in 80% of patients overall. In 13 patients (65%), the event was considered related to the combination of SNX-5422 and everolimus. […]

[3] = system: advanced, non-functional neuroendocrine tumours of the lung or gastrointestinal tract; details: everolimus only, without SNX-5422; patients with NETs; RADIANT-4; cited from earlier work
[4] = of 17 NET patients evaluable, SNX-5422 plus everolimus, RECIST 1.1
[5] = patients previously treated with 2 or less prior lines of treatment (FIG. 2), SNX-5422 plus everolimus
[6] = six patients, GI tract/lung/unknown carcinoid, ≤2 prior lines and Ki67<20% (FIG. 4), SNX-5422 plus everolimus

SMILES	subjects receiving ongoing treatment for over 2 years (i.e., ≥30 cycles) ([1]; combination of SNX-5422 plus everolimus, NET patients) [subjects]	partial response as best response, % of patients [1, 4] [%]	partial response as best response, number of patients [1, 4] [patients]	progressive disease as best response, % of patients [1, 4] [%]	progressive disease as best response, number of patients [1, 4] [patients]	stable disease as best response, % of patients [1, 4] [%]	stable disease as best response, number of patients [1, 4] [patients]	tumor reduction ([1]; one patient with GI NET, 30 treatment cycles, SNX-5422 plus everolimus) [%]	tumor reduction ([1]; one patient with lung carcinoid, 10 treatment cycles, SNX-5422 plus everolimus) [%]	tumor reduction ([1]; one patient with unknown carcinoid, 35 treatment cycles, SNX-5422 plus everolimus) [%]	reduction in target lesion size ([1]; one patient, SNX-5422 plus everolimus) [%]	tumor measurement, second diameter (CT scan left iliac adenopathy) ([1]; patient with pulmonary carcinoid NET, after 4 cycles of treatment, baseline 4.25 cm, SNX-5422 plus everolimus) [cm]	tumor measurement, first diameter (CT scan left iliac adenopathy) ([1]; patient with pulmonary carcinoid NET, after 4 cycles of treatment, baseline 6.51 cm, SNX-5422 plus everolimus) [cm]	partial response as best response, number of patients [1, 5] [patients]	progressive disease as best response, number of patients [1, 5] [patients]	stable disease as best response, number of patients [1, 5] [patients]	overall response rate [1, 6] [%]	partial response, number of patients [1, 6]	maximum tolerated dose (MTD) [2] [mg/m^2]	partial response rate, % of patients [3]
CC1(C)CC(=O)c2c(C(F)(F)F)nn(-c3ccc(C(N)=O)c(N[C@H]4CC[C@H](OC(=O)CN)CC4)c3)c2C1 [SNX-5422, trans-4-({2-(aminocarbonyl)-5-[6,6-dimethyl-4-oxo-3-(trifluoromethyl)-4,5,6,7-tetrahydro-1H-indazol-1-yl]phenyl}amino)cyclohexyl glycinate]	2	18	3	18	3	64	11	31	51	36	51	2.42	3.75	3	1	7	50	three	75	
CO[C@H]1C[C@@H]2CC[C@@H](C)[C@@](O)(O2)C(=O)C(=O)N2CCCC[C@H]2C(=O)O[C@H]([C@H](C)C[C@@H]2CC[C@@H](OCCO)[C@H](OC)C2)CC(=O)[C@H](C)/C=C(\C)[C@@H](O)[C@@H](OC)C(=O)[C@H](C)C[C@H](C)/C=C/C=C/C=C/1C [everolimus, (1R,9S,12S,15R,16E,18R,19R,21R,23S,24E,26E,28E,30S,32S,35R)-1,18-dihydroxy-12-{(1R)-2-[(1 S,3R,4R)-4-(2-hydroxyethoxy)-3-methoxycyclohexyl]-1-methylethyl}-19,30-dimethoxy-15,17,21,23,29,35-hexamethyl-11,36-dioxa-4-aza-tricyclo[30.3.1.04,9]hexatriaconta-16,24,26,28-tetraene-2,3,10,14,20-pentaone]																				about 2%
